Records with an inconclusive call do not appear. Calls of active or inactive are those of the source.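 Rule for the calls: active = inhibition of the calcium rise above 50%; inconclusive = blank fluorescence over twice solvent-only controls, so no ratio; inactive = inhibition below 50%.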
Tested on: TALL-104 cells, thapsigargin Ca2+ rise, fura-2 ratio
Experiment: intracellular Ca2+ signaling inhibition in T cells – TALL-104 cells, fura-2 fluorescence, CherryPick01, mechanism study for lytic granule exocytosis inhibitor project (AID 720670)
Conditions: at 30 µM; active compounds read high

SMILES	inhibition
O=C(Nc1ccc(F)cc1)c1nc(S(=O)(=O)Cc2ccccc2)ncc1Cl	75.7%
Cc1cc(N2CCN(c3nc(-c4ccc([N+](=O)[O-])cc4)cs3)CC2)c2ccccc2n1	-35.4% (inactive)
CCCS(=O)(=O)Nc1ccc(Nc2c3ccccc3nc3ccccc23)c(OC)c1	67.1%
Cc1ccc(-n2nnc3c(=O)oc4ccccc4c32)cc1	116%
COc1ccc(-c2cc(NC=O)c3ncc(-c4cccc(OC)c4)n3c2)cc1	22.8% (inactive)
CCC(=C(c1ccc(OC)cc1)c1ccc(OC)cc1)c1cn(CC(O)CN2CCN(C)CC2)c2ccccc12 (configuration not stated)	41.5% (inactive)
CCCCC[C@@H](C)N1C[C@@H](COCc2ccccc2)Oc2cc(N3CC[C@H](N(C)C)C3)ccc2S1(=O)=O	37.6% (inactive)
COC(=O)c1c(NC(=O)c2nc3ccccc3s2)sc2c1CC(C)(C)NC2(C)C	41.7% (inactive)
OC(CNCC(c1ccc(Cl)cc1Cl)c1c[nH]c2ccccc12)c1ccccc1 (configuration not stated)	34.1% (inactive)
COc1ccccc1CNc1nc(NCc2ccc(C(C)C)cc2)c2sccc2n1	4.1% (inactive)
c1ccc(CNc2nc(NCC3CC3)nc3cc(-c4ccccc4)sc23)cc1	70%
CC1=NOC(=O)/C1=C/c1ccc(-c2ccc(Cl)cc2)o1	18.1% (inactive)
Cn1sc(=O)c2cc(S(=O)(=O)NC3CC3)ccc21	91.3%
O=c1c2ccccc2sn1-c1ccccc1F	18.8% (inactive)
O=c1c2ccc(F)cc2sn1-c1ccccc1	7.1% (inactive)
CN(C)CCCNC(=S)NCC(c1ccc(Cl)cc1Cl)c1c[nH]c2ccccc12 (configuration not stated)	10.4% (inactive)
N#Cc1c(Nc2ccccc2Cl)s[nH]c1=O	9.3% (inactive)
Cc1ccc(Nc2nc(NCc3ccco3)c3ccccc3n2)cc1	-2.3% (inactive)
O=C(OCc1ccccc1)N(CCCCN(CCCNCc1ccccc1)C(=O)OCc1ccccc1)CCCNCc1ccccc1	57.3%
COC(=O)[C@]12CCCCC=C1N(Cc1cccc3ccccc13)C(=O)[C@H](CC(=O)NCc1ccc(OC)c(OC)c1)C2	6.3% (inactive)
COC(=O)c1c(NC(=O)c2ccc(C(=O)c3ccccc3)cc2)sc2c1CC(C)(C)NC2(C)C	73.3%

SMILES	inhibition
CCOc1ccc2nc(C)cc(Nc3cccc([N+](=O)[O-])c3)c2c1	77.7%
COc1ccccc1CNc1nc(NCc2ccc3occc3c2)c2sccc2n1	8.8% (inactive)
CC1=C(C)CS(=O)N(S(=O)(=O)c2ccc(Cl)cc2)C1 (configuration not stated)	11.4% (inactive)
O=C1CC(Sc2nnnn2-c2ccccc2)C(=O)N1c1cccc(Cl)c1 (configuration not stated)	6.9% (inactive)
COc1cccc(-c2cnc3c(NC=O)cc(-c4ccccc4)cn23)c1	66.5%
O=CNc1cc(-c2ccsc2)cn2c(-c3ccccc3)cnc12	11% (inactive)
COc1cccc(-c2cnc3c(NC(C)=O)cc(-c4ccccc4OC)cn23)c1	81.3%
O=S(=O)(c1ccccc1)c1nnn2c1nc(NC1CCN(Cc3ccccc3)CC1)c1cc(Cl)ccc12	79.3%
COc1cccc(NC(=O)Nc2nc(-c3ccc(OC)c(OC)c3)cs2)c1	90.9%
CN(c1ccccc1)S(=O)(=O)c1cccc(C(=O)NCCc2c[nH]c3ccccc23)c1	78.8%
O=C(Cn1sc2ccccc2c1=O)Nc1ccc(F)cc1	-21.1% (inactive)
O=C1C=CC(=O)N1N(c1ccccc1)c1ccccc1	11.2% (inactive)
CC(=O)Nc1ccc2c(=O)n(-c3ccccc3)sc2c1	16.3% (inactive)
CCCCC[C@@H](C)N1C[C@H](COCc2ccccc2)Oc2cc(N3CC[C@@H](N(C)C)C3)ccc2S1(=O)=O	37.4% (inactive)
N#Cc1ccc(NC(=O)Nc2ccc(Oc3ccc(NC(=O)Nc4ccc(C#N)cc4)cc3)cc2)cc1	-1.1% (inactive)
CCc1ccc(/C=C2/Sc3ccccc3N(CC(=O)NCCCN3CCOCC3)C2=O)cc1	3.8% (inactive)
CC(=O)Nc1ccc2sn(-c3ccccc3)c(=O)c2c1	12.6% (inactive)
CCOc1cc(CNCCc2ccc(S(N)(=O)=O)cc2)ccc1OCc1ccc(Cl)cc1	63.5%
CC(C)(c1ccccc1)c1ccc(OCC(O)CNC2CCN(Cc3ccccc3)CC2)cc1 (configuration not stated)	27.1% (inactive)
CCCNC(=O)Cn1sc2nc(C)cc(C)c2c1=O	19.7% (inactive)
CCOC(=O)c1c(NC(=O)COc2ccccc2OCC)sc2c1CC(C)(C)NC2(C)C	32.1% (inactive)

SMILES	inhibition
COc1ccc([N+](=O)[O-])cc1Nc1c2ccccc2nc2ccccc12	12.2% (inactive)
COc1ccc(-n2sc3ccccc3c2=O)cc1	19.8% (inactive)
COc1ccc(N2C(=O)CC(Sc3nnc(-c4ccccc4)o3)C2=O)cc1 (configuration not stated)	-14.7% (inactive)
CCOC(=O)c1nnc(-c2ccccc2)nc1Sc1ccccc1Cl	21.2% (inactive)
CC1(C(=O)OCC(=O)Nc2nc(-c3ccc(F)c(F)c3)cs2)CC1(Cl)Cl (configuration not stated)	20.1% (inactive)
COc1cccc(-c2cnc3c(NC(C)=O)cc(-c4ccsc4)cn23)c1	39.6% (inactive)
COc1ccc(-c2cc(NC=O)c3ncc(-c4ccccc4)n3c2)cc1OC	31.5% (inactive)
CCCCn1c(=N)n(CC(=O)c2ccc(Br)s2)c2ccccc21	58.6%
COc1cc(-c2coc3c(C(=O)NCc4ccc(OC)c(OC)c4)cccc23)ccc1O	15.4% (inactive)
Cc1ccc(S(=O)(=O)n2ccc3c(OCCOCCNCc4ccc(F)cc4)cccc32)cc1	39.2% (inactive)
CCOC(=O)c1cc(-c2csc(Nc3c(C)cc(C)cc3C)n2)on1	79.7%
CCc1ccc2nc(N(CCCN(C)C)C(=O)c3ccc(S(=O)(=O)N4CCc5ccccc5C4)cc3)sc2c1	50.9%
O=c1c2ccccc2sn1-c1ccccc1	-10.6% (inactive)
O=C(Cn1sc2ccccc2c1=O)NC12CC3CC(CC(C3)C1)C2	3% (inactive)
CC1COCC(C)N1C1=C(Cl)C(=O)c2ccccc2C1=O (configuration not stated)	27% (inactive)
CCCCC[C@@H](C)N1C[C@@H](COCc2ccccc2)Oc2cc(N3CC[C@@H](N(C)C)C3)ccc2S1(=O)=O	21.3% (inactive)
CCOC(=O)c1c(CSc2ccccc2)n(C)c2cc(Br)c(O)c(CN(C)C)c12	70.2%
O=C1Nc2ccc(Br)cc2/C1=C/C(=O)c1ccccc1	15.1% (inactive)
CCOc1ccc2nc(N(CCCN(C)C)C(=O)c3ccc(S(=O)(=O)N4CCc5ccccc5C4)cc3)sc2c1	69.4%
CCc1nc2ccc(C(=O)NC3CCN(Cc4ccccc4)CC3)cn2c1N(C)Cc1cc2ccccc2s1	3.6% (inactive)

— PubChem BioAssay AID720670 (NMMLSC, 2013)
